Results taken from PMC3973950, “Synthesis of 5-arylidine amino-1,3,4-thiadiazol-2-[(N-substituted benzyol)]sulphonamides endowed with potent antioxidants and anticancer activity induces growth inhibition in HEK293, BT474 and NCI-H226 cells” (Medicinal Chemistry Research, 2013).

Experiments:
[1] = tested on: root meristem cells of Allium cepa; test: In vitro antimitotic activity and cytogenetic analysis, Allium cepa meristem root model; assay type: cell-based; details: compounds 1 mg/mL, PC (EMS) 2 × 10^−2 M
Description: Small bulbs (1.5–2.0 cm in diameter) of the common onion, A. cepa (2n = 16), were purchased from vendor at a local market. Prior to initiating the test, the outer scales of the bulbs and the dry bottom plate were removed without destroying the root primordia. The roots of A. cepa were grown in distilled water in Erlenmeyer flasks (200 mL capacity) under laboratory conditions (dark 24 °C). For each synthesized compound sample, after reaching a length of 3 cm (±0.5 cm), a series of six bulbs were placed in distilled water (pH 7.3) for 48 h and then onion roots were treated with the synthesized compound at 1 mg/mL concentrations of each tested compound. The test tubes were kept in an incubator at 22 ± 1 °C, and the test samples were changed daily at the same time. Several of the newly formed root tips were then cut from each bulb and examined for any visible morphological abnormalities. The bulbs with satisfactory root lengths (2–2.5 cm) were used in the study, while those with exceptionally long or short roots were discarded (on average 2–3 bulbs). Therefore, individual sets of five bulbs were used for each extract sample.
Distilled water (pH 7.3) was used as a negative control, and EMS (2 × 10^−2 M) used as a positive control mutagen (Fiskesjo, [1993], [1997]). After 24 h of exposure, several root tips were removed from the bulbs, fixed in 3:1 (v/v) ethanol (90 %)/glacial acetic acid (45 %) and stored overnight at 4 °C. The next day, they were placed in 70 % (v/v) aqueous alcohol and refrigerated until used. Allium roots were softened by digesting with HCl and rinsed the roots in water. After removing the water from the third rinse, the roots were covered with the orcein acetate stain. The roots were incubated in the stain for 12 min. During this time, the very tip of the root begins to turn red as the DNA stains the numerous small actively dividing cells at the tip. A root was transferred to the centre of a clean microscope slide, and a drop of water was added. Using a razor blade most of the unstained part of the root was cut off and discarded. The root tip was covered with a cover slip and then carefully pushed down on the cover slide with the wooden end of a dissecting probe. […] The root tip should spread out to a diameter about 0.5–1 cm. Five slides were prepared per bulb.
The following parameters were used for the determination of cytotoxicity and genotoxicity: • (i) the mitotic index (MI) was calculated as the ratio between the number of mitotic cells and the total number of cells scored and expressed as percentage using following formula as per standard procedures. Mitoticindex=Numberofdividingcells/Totalnumberofcells×100 • (ii) Chromatin aberrations (stickiness, breaks and polar deviation) were used as end points for the determination of cytogenetic effects, and micronuclei (MNC) were scored in interphase cells per 1,000 cells (‰ MNC) (Freshney, [2000]). • (iii) The most frequent abnormalities are shown in microphotographs. After 72 h of exposure to the test samples, the root lengths were measured and used as an index of general toxicity. The results for mitotic index and root length are expressed as percentage of the negative and positive controls. Visible morphological modifications, such as changes in root consistency and colour as well as the presence of swelling (c-tumours), hooks or twists in the roots, were also observed.

[2] = tested on: HEK 293 (human epidermal kidney cell line); test: In vitro cytotoxicity by MTT assay, HEK 293; assay type: cell-based; details: 72 h
Method in brief: (§1)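 After 72 h of compound exposure at 37 °C in 5 % CO2, MTT was added for 4 h and the propanol-solubilised formazan was read at 490 nm. Monolayers (~10,000 cells/well, RPMI-1640 plus 10 % newborn calf serum) had been allowed to form for 24 h beforehand.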

[3] = tested on: BT474 (breast cancer cell line); test: In vitro cytotoxicity by MTT assay, BT474; assay type: cell-based; details: 72 h
Method in brief: as §1

[4] = tested on: NCI-H226 (lung cancer cell line); test: In vitro cytotoxicity by MTT assay, NCI-H226; assay type: cell-based; details: 72 h
Method in brief: as §1

[5] = In vitro cytotoxicity by MTT assay, HEK 293; assay type: cell-based, human; details: human, HEK 293 cells, read-out: % cytotoxicity (100 − % cell survival) of HEK 293 cell line
Method in brief: as §1

[6] = In vitro cytotoxicity by MTT assay, NCI-H226; assay type: cell-based; details: human, NCI-H226 lung cancer cells, 0.015 μM, read-out: % Cytotoxicity (100 − % cell survival) of NCI-H226 cell line
Method in brief: as §1

## N-({5-[(3-Nitrobenzylidene)amino]-1,3,4-thiadiazol-2-yl}sulfonyl)benzamide [Compound 9i]
[1]
  Aberrant cells (%) ± SEM: 22.41 ± 6.18%
  Chromosome breaks (%) ± SEM: 7.33 ± 2.06%
  MNC (‰) ± SEM (micronuclei per 1,000 cells): 0.61 ± 0.15 ‰
  Polar deviations (%) ± SEM: 6.57 ± 1.33%
  Stickiness (%) ± SEM: 7.35 ± 2.06%
[1]; lower MI = higher activity, negative control 6.22
  MI (%) ± SEM (mitotic index): 3.07 ± 0.22%
[2]; 0.005 μM
  % cytotoxicity (100 − % cell survival) of HEK 293 cell line: 33.04%
[2]; 0.015 μM
  % cytotoxicity (100 − % cell survival) of HEK 293 cell line: 34.46%
[2]; 0.045 μM
  % cytotoxicity (100 − % cell survival) of HEK 293 cell line: 35.12%
[2]; 0.13 μM
  % cytotoxicity (100 − % cell survival) of HEK 293 cell line: 36.32%
[2]; 0.41 μM
  % cytotoxicity (100 − % cell survival) of HEK 293 cell line: 36.69%
[2]; 1.23 μM
  % cytotoxicity (100 − % cell survival) of HEK 293 cell line: 37.03%
[2]; 3.7 μM
  % cytotoxicity (100 − % cell survival) of HEK 293 cell line: 37.19%
[2]; 11.11 μM
  % cytotoxicity (100 − % cell survival) of HEK 293 cell line: 38.84%
[2]; 33.33 μM
  % cytotoxicity (100 − % cell survival) of HEK 293 cell line: 39.51%
[2]; 100 μM
  % cytotoxicity (100 − % cell survival) of HEK 293 cell line: 43.48%
[3]; 0.005 μM
  % cytotoxicity (100 − % cell survival) of BT474 cell line: 31.52%
[3]; 0.015 μM
  % cytotoxicity (100 − % cell survival) of BT474 cell line: 33.31%
[3]; 0.045 μM
  % cytotoxicity (100 − % cell survival) of BT474 cell line: 34.59%
[3]; 0.13 μM
  % cytotoxicity (100 − % cell survival) of BT474 cell line: 35.42%
[3]; 0.41 μM
  % cytotoxicity (100 − % cell survival) of BT474 cell line: 36.12%
[3]; 1.23 μM
  % cytotoxicity (100 − % cell survival) of BT474 cell line: 36.73%
[3]; 3.7 μM
  % cytotoxicity (100 − % cell survival) of BT474 cell line: 37.56%
[3]; 11.11 μM
  % cytotoxicity (100 − % cell survival) of BT474 cell line: 39.19%
[3]; 33.33 μM
  % cytotoxicity (100 − % cell survival) of BT474 cell line: 40.50%
[3]; 100 μM
  % cytotoxicity (100 − % cell survival) of BT474 cell line: 41.29%
[4]; 0.005 μM
  % Cytotoxicity (100 − % cell survival) of NCI-H226 cell line: 33.61%
[4]; 0.015 μM
  % Cytotoxicity (100 − % cell survival) of NCI-H226 cell line: 33.92%
[4]; 0.045 μM
  % Cytotoxicity (100 − % cell survival) of NCI-H226 cell line: 33.97%
[4]; 0.13 μM
  % Cytotoxicity (100 − % cell survival) of NCI-H226 cell line: 34.14%
[4]; 0.41 μM
  % Cytotoxicity (100 − % cell survival) of NCI-H226 cell line: 34.59%
[4]; 1.23 μM
  % Cytotoxicity (100 − % cell survival) of NCI-H226 cell line: 34.95%
[4]; 3.7 μM
  % Cytotoxicity (100 − % cell survival) of NCI-H226 cell line: 35.27%
[4]; 11.11 μM
  % Cytotoxicity (100 − % cell survival) of NCI-H226 cell line: 36.72%
[4]; 33.33 μM
  % Cytotoxicity (100 − % cell survival) of NCI-H226 cell line: 38.57%
[4]; 100 μM
  % Cytotoxicity (100 − % cell survival) of NCI-H226 cell line: 38.66%

## Nc1ccc(C(=O)NS(=O)(=O)c2nnc(NS(=O)(=O)c3ccc(N)cc3)s2)cc1 [Compound 7c]
[5]; 0.005 μM
  cytotoxicity at 72 h, 0.005 µM: 36.5%
[5]; 0.015 μM
  cytotoxicity at 72 h, 0.015 µM: 38.2%
[5]; 0.045 μM
  cytotoxicity at 72 h, 0.045 µM: 40.6%
[5]; 0.13 μM
  cytotoxicity at 72 h, 0.13 µM: 42.7%
[5]; 0.41 μM
  cytotoxicity at 72 h, 0.41 µM: 43.4%
[5]; 1.23 μM
  cytotoxicity at 72 h, 1.23 µM: 45.3%
[5]; 3.7 μM
  cytotoxicity at 72 h, 3.7 µM: 47.1%
[5]; 11.11 μM
  cytotoxicity at 72 h, 11.11 µM: 49.1%
[5]; 33.33 μM
  cytotoxicity at 72 h, 33.33 µM: 49.2%
[5]; 100 μM
  cytotoxicity at 72 h, 100 µM: 49.9%
[3]; Homo sapiens, BT-474, 0.005 μM, read-out: % cytotoxicity (100 − % cell survival) of BT474 cell line
  cytotoxicity at 0.005 µM: 18.8%
[3]; Homo sapiens, BT-474, 0.015 μM, read-out: % cytotoxicity (100 − % cell survival) of BT474 cell line
  cytotoxicity at 0.015 µM: 19.4%
[3]; Homo sapiens, BT-474, 0.045 μM, read-out: % cytotoxicity (100 − % cell survival) of BT474 cell line
  cytotoxicity at 0.045 µM: 19.8%
[3]; Homo sapiens, BT-474, 0.13 μM, read-out: % cytotoxicity (100 − % cell survival) of BT474 cell line
  cytotoxicity at 0.13 µM: 20.1%
[3]; Homo sapiens, BT-474, 0.41 μM, read-out: % cytotoxicity (100 − % cell survival) of BT474 cell line
  cytotoxicity at 0.41 µM: 21%
[3]; Homo sapiens, BT-474, 1.23 μM, read-out: % cytotoxicity (100 − % cell survival) of BT474 cell line
  cytotoxicity at 1.23 µM: 22.8%
[3]; Homo sapiens, BT-474, 3.7 μM, read-out: % cytotoxicity (100 − % cell survival) of BT474 cell line
  cytotoxicity at 3.7 µM: 24.2%
[3]; Homo sapiens, BT-474, 11.11 μM, read-out: % cytotoxicity (100 − % cell survival) of BT474 cell line
  cytotoxicity at 11.11 µM: 25.7%
[3]; Homo sapiens, BT-474, 33.33 μM, read-out: % cytotoxicity (100 − % cell survival) of BT474 cell line
  cytotoxicity at 33.33 µM: 26.4%
[3]; Homo sapiens, BT-474, 100 μM, read-out: % cytotoxicity (100 − % cell survival) of BT474 cell line
  cytotoxicity at 100 µM: 27.9%
[6]
  cytotoxicity at 72 h, 0.015 µM: 34%
[4]; Homo sapiens, NCI-H226, 0.005 μM, read-out: % Cytotoxicity (100 − % cell survival) of NCI-H226 cell line
  cytotoxicity at 0.005 µM: 33.2%
[4]; Homo sapiens, NCI-H226, 0.045 μM, read-out: % Cytotoxicity (100 − % cell survival) of NCI-H226 cell line
  cytotoxicity at 0.045 µM: 34.8%
[4]; Homo sapiens, NCI-H226, 0.13 μM, read-out: % Cytotoxicity (100 − % cell survival) of NCI-H226 cell line
  cytotoxicity at 0.13 µM: 36.6%
[4]; Homo sapiens, NCI-H226, 0.41 μM, read-out: % Cytotoxicity (100 − % cell survival) of NCI-H226 cell line
  cytotoxicity at 0.41 µM: 37.8%
[4]; Homo sapiens, NCI-H226, 1.23 μM, read-out: % Cytotoxicity (100 − % cell survival) of NCI-H226 cell line
  cytotoxicity at 1.23 µM: 38%
[4]; Homo sapiens, NCI-H226, 3.7 μM, read-out: % Cytotoxicity (100 − % cell survival) of NCI-H226 cell line
  cytotoxicity at 3.7 µM: 38.2%
[4]; Homo sapiens, NCI-H226, 11.11 μM, read-out: % Cytotoxicity (100 − % cell survival) of NCI-H226 cell line
  cytotoxicity at 11.11 µM: 38.6%
[4]; Homo sapiens, NCI-H226, 33.33 μM, read-out: % Cytotoxicity (100 − % cell survival) of NCI-H226 cell line
  cytotoxicity at 33.33 µM: 38.9%
[4]; Homo sapiens, NCI-H226, 100 μM, read-out: % Cytotoxicity (100 − % cell survival) of NCI-H226 cell line
  cytotoxicity at 100 µM: 40.3%
